Patent US6335373B1, “Process to produce stabilized carnosic acid in high concentration” (Lycored Natural Products Industries, Ltd., priority 2000, dated 2002)

Tests used:
[1] = Stabilization of carnosic acid in 60% ethanol rosemary extract with added acids, kept in the dark; type: physicochemical
Experimental: To 4.0 litre of ethanol (60%) are added 500 gr. of dried and finely ground rosemary leaves, having a concentration of 4.3% carnosic acid. Extraction is done for 3 hours at room temperature. 3.22 litre of extract are obtained by vacuum filtration of the biomass. The concentrate is divided to 200 ml. portions where different acids at various concentrations are added to these portions. All portions are kept in the dark and the variations in the carnosic acid concentrations of the different portions are checked. […] Only under acidic conditions is the concentration of carnosic acid retained where the optimal acids are phosphoric and ascorbic acid.

[2] = Exposure of carnosic acid in an extract to room temperature and light; type: physicochemical; settings: pH of the extract above 6
[3] = identified by Brieskorn and Domling in 1964; cited from earlier work
stephilococus = settings: against stephilococus and dental caries, reported; cited from earlier work

CC(C)c1cc2c(c(O)c1O)[C@@]1(C(=O)O)CCCC(C)(C)[C@@H]1CC2 [carnosic acid]
Concentration of Carnosic ([1]; Acetic 1%, +2 Hours): 4770 µg/mL | Concentration of Carnosic ([1]; Acetic 1%, +5 Hours): 4740 µg/mL | Concentration of Carnosic ([1]; Acetic 1%, +1 hour): 4760 µg/mL | Concentration of Carnosic ([1]; Acetic 1%, +24 hour): 4590 µg/mL | Concentration of Carnosic ([1]; Acetic 1%, +48 hours): 4260 µg/mL | Concentration of Carnosic ([1]; Acetic 1%, Time Zero): 4800 µg/mL | Concentration of Carnosic ([1]; Acetic 2%, +2 Hours): 4690 µg/mL | Concentration of Carnosic ([1]; Acetic 2%, +5 Hours): 4710 µg/mL | Concentration of Carnosic ([1]; Acetic 2%, +1 hour): 4790 µg/mL | Concentration of Carnosic ([1]; Acetic 2%, +24 hour): 4490 µg/mL | Concentration of Carnosic ([1]; Acetic 2%, +48 hours): 4230 µg/mL | Concentration of Carnosic ([1]; Acetic 2%, Time Zero): 4800 µg/mL | Concentration of Carnosic ([1]; Ascorbic 0.05%, +2 Hours): 4710 µg/mL | Concentration of Carnosic ([1]; Ascorbic 0.05%, +5 Hours): 4680 µg/mL | Concentration of Carnosic ([1]; Ascorbic 0.05%, +1 hour): 4750 µg/mL | Concentration of Carnosic ([1]; Ascorbic 0.05%, +24 hour): 4780 µg/mL | Concentration of Carnosic ([1]; Ascorbic 0.05%, +48 hours): 4790 µg/mL | Concentration of Carnosic ([1]; Ascorbic 0.05%, Time Zero): 4800 µg/mL | Concentration of Carnosic ([1]; Ascorbic 0.1%, +2 Hours): 4710 µg/mL | Concentration of Carnosic ([1]; Ascorbic 0.1%, +5 Hours): 4720 µg/mL | Concentration of Carnosic ([1]; Ascorbic 0.1%, +1 hour): 4740 µg/mL | Concentration of Carnosic ([1]; Ascorbic 0.1%, +24 hour): 4790 µg/mL | Concentration of Carnosic ([1]; Ascorbic 0.1%, +48 hours): 4790 µg/mL | Concentration of Carnosic ([1]; Ascorbic 0.1%, Time Zero): 4800 µg/mL | Concentration of Carnosic ([1]; Ascorbic 0.5%, +2 Hours): 4830 µg/mL | Concentration of Carnosic ([1]; Ascorbic 0.5%, +5 Hours): 4820 µg/mL | Concentration of Carnosic ([1]; Ascorbic 0.5%, +1 hour): 4860 µg/mL | Concentration of Carnosic ([1]; Ascorbic 0.5%, +24 hour): 4810 µg/mL | Concentration of Carnosic ([1]; Ascorbic 0.5%, +48 hours): 4820 µg/mL | Concentration of Carnosic ([1]; Ascorbic 0.5%, Time Zero): 4800 µg/mL | Concentration of Carnosic ([1]; Ascorbic 1%, +2 Hours): 4840 µg/mL | Concentration of Carnosic ([1]; Ascorbic 1%, +5 Hours): 4840 µg/mL | Concentration of Carnosic ([1]; Ascorbic 1%, +1 hour): 4830 µg/mL | Concentration of Carnosic ([1]; Ascorbic 1%, +24 hour): 4820 µg/mL | Concentration of Carnosic ([1]; Ascorbic 1%, +48 hours): 4800 µg/mL | Concentration of Carnosic ([1]; Ascorbic 1%, Time Zero): 4800 µg/mL | Concentration of Carnosic ([1]; Citric 0.1%, +2 Hours): 4560 µg/mL | Concentration of Carnosic ([1]; Citric 0.1%, +5 Hours): 4490 µg/mL | Concentration of Carnosic ([1]; Citric 0.1%, +1 hour): 4730 µg/mL | Concentration of Carnosic ([1]; Citric 0.1%, +24 hour): 4270 µg/mL | Concentration of Carnosic ([1]; Citric 0.1%, +48 hours): 4130 µg/mL | Concentration of Carnosic ([1]; Citric 0.1%, Time Zero): 4800 µg/mL | Concentration of Carnosic ([1]; Citric 0.5%, +2 Hours): 4580 µg/mL | Concentration of Carnosic ([1]; Citric 0.5%, +5 Hours): 4530 µg/mL | Concentration of Carnosic ([1]; Citric 0.5%, +1 hour): 4760 µg/mL | Concentration of Carnosic ([1]; Citric 0.5%, +24 hour): 4510 µg/mL | Concentration of Carnosic ([1]; Citric 0.5%, +48 hours): 4220 µg/mL | Concentration of Carnosic ([1]; Citric 0.5%, Time Zero): 4800 µg/mL | Concentration of Carnosic ([1]; Citric 1%, +2 Hours): 4530 µg/mL | Concentration of Carnosic ([1]; Citric 1%, +5 Hours): 4560 µg/mL | Concentration of Carnosic ([1]; Citric 1%, +1 hour): 4760 µg/mL | Concentration of Carnosic ([1]; Citric 1%, +24 hour): 4560 µg/mL | Concentration of Carnosic ([1]; Citric 1%, +48 hours): 4420 µg/mL | Concentration of Carnosic ([1]; Citric 1%, Time Zero): 4800 µg/mL | Concentration of Carnosic ([1]; Control, acid 0%, +2 Hours): 4420 µg/mL | Concentration of Carnosic ([1]; Control, acid 0%, +5 Hours): 4270 µg/mL | Concentration of Carnosic ([1]; Control, acid 0%, +1 hour): 4510 µg/mL | Concentration of Carnosic ([1]; Control, acid 0%, +24 hour): 3550 µg/mL | Concentration of Carnosic ([1]; Control, acid 0%, +48 hours): 2780 µg/mL | Concentration of Carnosic ([1]; Control, acid 0%, Time Zero): 4800 µg/mL | Concentration of Carnosic ([1]; HCI 0.1%, +2 Hours): 4680 µg/mL | Concentration of Carnosic ([1]; HCI 0.1%, +5 Hours): 4520 µg/mL | Concentration of Carnosic ([1]; HCI 0.1%, +1 hour): 4720 µg/mL | Concentration of Carnosic ([1]; HCI 0.1%, +24 hour): 3690 µg/mL | Concentration of Carnosic ([1]; HCI 0.1%, +48 hours): 2930 µg/mL | Concentration of Carnosic ([1]; HCI 0.1%, Time Zero): 4800 µg/mL | Concentration of Carnosic ([1]; HCI 1%, +2 Hours): 4720 µg/mL | Concentration of Carnosic ([1]; HCI 1%, +5 Hours): 4530 µg/mL | Concentration of Carnosic ([1]; HCI 1%, +1 hour): 4780 µg/mL | Concentration of Carnosic ([1]; HCI 1%, +24 hour): 4540 µg/mL | Concentration of Carnosic ([1]; HCI 1%, +48 hours): 4390 µg/mL | Concentration of Carnosic ([1]; HCI 1%, Time Zero): 4800 µg/mL | Concentration of Carnosic ([1]; HCI 2%, +2 Hours): 4700 µg/mL | Concentration of Carnosic ([1]; HCI 2%, +5 Hours): 4580 µg/mL | Concentration of Carnosic ([1]; HCI 2%, +1 hour): 4760 µg/mL | Concentration of Carnosic ([1]; HCI 2%, +24 hour): 4460 µg/mL | Concentration of Carnosic ([1]; HCI 2%, +48 hours): 4420 µg/mL | Concentration of Carnosic ([1]; HCI 2%, Time Zero): 4800 µg/mL | Concentration of Carnosic ([1]; Phosphoric 1%, +2 Hours): 4790 µg/mL | Concentration of Carnosic ([1]; Phosphoric 1%, +5 Hours): 4760 µg/mL | Concentration of Carnosic ([1]; Phosphoric 1%, +1 hour): 4820 µg/mL | Concentration of Carnosic ([1]; Phosphoric 1%, +24 hour): 4780 µg/mL | Concentration of Carnosic ([1]; Phosphoric 1%, +48 hours): 4790 µg/mL | Concentration of Carnosic ([1]; Phosphoric 1%, Time Zero): 4800 µg/mL | Concentration of Carnosic ([1]; Phosphoric 2%, +2 Hours): 4790 µg/mL | Concentration of Carnosic ([1]; Phosphoric 2%, +5 Hours): 4750 µg/mL | Concentration of Carnosic ([1]; Phosphoric 2%, +1 hour): 4770 µg/mL | Concentration of Carnosic ([1]; Phosphoric 2%, +24 hour): 4810 µg/mL | Concentration of Carnosic ([1]; Phosphoric 2%, +48 hours): 4780 µg/mL | Concentration of Carnosic ([1]; Phosphoric 2%, Time Zero): 4800 µg/mL | period for which carnosic acid is stable ([1]; in acidic polar solution containing water, lower alkyl alcohol and acid): more than 24 hours | decrease of carnosic acid ([1]; lack of acid): 50% | change in concentration of carnosic acid [2]: marked decrease | antioxidant activity [3]: very potent antioxidant | antibiotic action (stephilococus): antibiotic action
